# Values joined by “and” are separate entries in the source; they are usually repeats but may differ in a detail not shown here. Identical values can stand only once.
# Legend:
# Assay type in all cases: in vivo
# [1] = test system: 60% high fat Paigen diet induced NASH mouse model; experiment: Short-term Paigen-diet NASH mouse model: liver weight and liver lipid content
# Method: To investigate whether Compound #37 prevents the development of pathology associated with NASH and steatosis in an acute exploratory disease model, a study was conducted using a diet-induced acute liver steatosis model in mice. […]
# After acclimation, 8-week old male C57Bl/6J mice (Charles River) weighing about 25 g were randomized in 4 groups according their body weight and treated once daily around noon by oral gavage with vehicle, […] (2-hydroxypropyl)-β-cyclodextrin (HP-β-CD) (n=10); Group 2: Compound #37, 5 mg/kg (n=10) Group 3: Compound #37, 20 mg/kg (n=10) Group 4: Compound #37, 40 mg/kg (n=10). During the treatment period, body weight and food intake (measured over 24h) were measured 3 times per week and once a week, respectively. During the acclimation, all mice were fed a standard diet (Special Diets Services RM1 (E), product no. 801492) and tap water ad libitum. […]
# After 21 days of treatment, mice were 4-hour fasted (9 am to 1 pm). One hour after the last dosing (noon), blood was collected by retro-orbital bleeding (maximal volume on EDTA) under isoflurane anesthesia to measure plasma triglycerides, total cholesterol, non-esterified fatty acid, ALT and AST. Mice were then sacrificed by cervical dislocation, and livers were harvested and weighed. Liver samples from the same lobe were dissected, frozen, and analyzed as described below.
# At the end of the treatment period, livers were weighed, and their lipid content was analyzed. The liver weights were unchanged by the treatment.
# INSIG1 = experiment: Short-term Paigen-diet NASH mouse model: hepatic INSIG1 gene expression (RT-qPCR); settings: liver, 21 days; for DDct: INSIG1 Dct relative to vehicle mean; for Dct: INSIG1 minus 18S; for 2DDct: INSIG1 relative expression to vehicle group, normalized to 18S; for INSIG1: raw RT-qPCR value
# Method: To investigate whether Compound #37 prevents the development of pathology associated with NASH and steatosis in an acute exploratory disease model, a study was conducted using a diet-induced acute liver steatosis model in mice. As described below, in this study, C57BL/6J mice were initiated on the Paigen diet and simultaneously treated with Compound #37 (5, 20, and 40 mg/kg/day) or vehicle control (20% HPβCD 10 mL/kg/day) by oral gavage for 21 days.
# After acclimation, 8-week old male C57Bl/6J mice (Charles River) weighing about 25 g were randomized in 4 groups according their body weight and treated once daily around noon by oral gavage with vehicle, or Compound #37 at various for 21 days as follows: Group 1: vehicle-20% (2-hydroxypropyl)-β-cyclodextrin (HP-β-CD) (n=10); Group 2: Compound #37, 5 mg/kg (n=10) Group 3: Compound #37, 20 mg/kg (n=10) Group 4: Compound #37, 40 mg/kg (n=10). During the treatment period, body weight and food intake (measured over 24h) were measured 3 times per week and once a week, respectively. During the acclimation, all mice were fed a standard diet (Special Diets Services RM1 (E), product no. 801492) and tap water ad libitum. After the acclimation period, mice were fed until the end of the experiment with a 60% high fat Paigen diet (60 kcal % fat, 1.25% cholesterol, and 0.5% cholate; D11061901, Research Diet) and tap water ad libitum.
# (§1) Gene expression analysis. Hepatic expression levels of genes involved in lipid metabolism (FAS, SREBP1, ACC1, SCD1), cholesterol metabolism (HMG-CoAR, LDLR), SREBP proteolysis (SCAP, INSIG1), ER stress (PERK), oxidative stress (NRF2), inflammation (MCP-1), and fibrosis (collagen 1α1) were quantified by RTqPCR. Expression level was normalized to 18S gene expression and relative expression to vehicle group was calculated with the […] method.
# SCD1 = experiment: DIN mouse model: hepatic SCD1 gene expression; set-up: key to 2^DDct: expression relative to vehicle group, normalized to 18S; settings: for 2^DDct / DDct / Dct / SCD1: Gene Expression: SCD1, 20 mg/kg group; for 18S: Gene Expression: SCD1 table, 18S reference, 20 mg/kg group
# Method: as §1
# Male C57Bl/6J mice (8 weeks old) were housed in enriched ventilated cages (31×12.5×12.7 cm) throughout the experimental phase. Animals' cages litters were changed at least once a week. Animal were housed 5 per cage on inverted 12-hour light cycle (at 09:00 am lights off), 22±2° C. and 55±10% relative humidity. The acclimation period was 20 days. During the acclimation period, all mice were fed a standard diet (RM1 (E) 801492, SDS) and tap water ad libitum. After the acclimation period, mice were fed with the DIN diet (60% fat, cholesterol enriched) and fructose-enriched tap water ad libitum until the end of the experiment.
# At 6 weeks of diet, mice were 4-hour fasted (09:00 am to 1:00 pm) and blood (150 μl/EDTA) was collected at 01:00 pm by retro-orbital bleeding under isoflurane anesthesia. Mice were then allocated in 2 homogenous groups (n=12/group) according to their plasma levels of ALT (average levels: 685U/L), AST (average levels: 627U/L) and HOMA-IR index (average value: 4.7), into 2 homogenous groups (see values at day 0 in Tables 15A and 15B ALT/AST and Tables 16A and 16B for HOMA-IR). Mice were then treated once daily by oral gavage with vehicle (Group 1) or Compound #37 at 20 mg/kg (Group 2) for 70 days.
# Hepatic expression levels of genes involved in lipid (FAS, SREBP1, ACC1, SCD1), cholesterol metabolism (HMG-CoAR, LDLR), in SREBP proteolysis (SCAP, INSIG1), in ER stress (PERK), oxidative stress (NRF2), and inflammation (MCP-1) were not changed. However, expression of collagen 1α1, involved in liver fibrosis, was reduced by 66% in mice treated with Compound #37 (p<0.05 vs. vehicle).
# [2] = 5 mg/kg p.o. daily, 21 days of diet and treatment, group mean
# [3] = 5 mg/kg p.o. daily, 21 days of diet and treatment, individual animals
# [4] = 20 mg/kg p.o. daily, 21 days of diet and treatment, group mean
# [5] = 20 mg/kg p.o. daily, 21 days of diet and treatment, individual animals
# [6] = 40 mg/kg p.o. (stopped after 4 administrations), 9 days of diet, group mean
# [7] = 40 mg/kg p.o. (stopped after 4 administrations), 9 days of diet, individual animals
# [8] = Compound #37 5 mg/kg, group mean, n=10
# [9] = Compound #37 5 mg/kg, individual animals, 5 mg/kg
# [10] = Compound #37 20 mg/kg, group mean, n=6
# [11] = Compound #37 20 mg/kg, individual animals, 20 mg/kg
compound,measurement,setting,value
"CC(C)Cc1cc(-c2nc(-c3ccc(NS(=O)(=O)C(F)(F)F)cc3Cl)cs2)ccn1 [Compound 37, N-(3-chloro-4-(2-(2-isobutylpyridin-4-yl)thiazol-4-yl)phenyl)-1,1,1-trifluoromethanesulfonamide]",liver cholesterol (μg/mg tissue),[1]; [2],34.4 μg/mg tissue
same,liver fatty acids (nmol/mg tissue),[1]; [2],57.6 nmol/mg tissue
same,liver triglycerides (μg/mg tissue),[1]; [2],6.2 μg/mg tissue
same,liver cholesterol (μg/mg tissue),[1]; [3],42.24 μg/mg tissue and 37.91 μg/mg tissue and 31.39 μg/mg tissue and 23.12 μg/mg tissue and 31.47 μg/mg tissue and 25.31 μg/mg tissue and 29.76 μg/mg tissue and 37.34 μg/mg tissue and 49.15 μg/mg tissue and 36.57 μg/mg tissue
same,liver fatty acids (nmol/mg tissue),[1]; [3],65.4 nmol/mg tissue and 66.6 nmol/mg tissue and 53.5 nmol/mg tissue and 47.5 nmol/mg tissue and 55.2 nmol/mg tissue (2×) and 35.5 nmol/mg tissue and 55.0 nmol/mg tissue and 77.4 nmol/mg tissue and 65.2 nmol/mg tissue
same,liver triglycerides (μg/mg tissue),[1]; [3],6.91 μg/mg tissue and 7.18 μg/mg tissue and 4.64 μg/mg tissue and 9.62 μg/mg tissue and 6.13 μg/mg tissue (2×) and 5.69 μg/mg tissue and 5.49 μg/mg tissue and 3.62 μg/mg tissue and 6.16 μg/mg tissue
same,liver cholesterol (μg/mg tissue),[1]; [4],39.1 μg/mg tissue
same,liver fatty acids (nmol/mg tissue),[1]; [4],63.3 nmol/mg tissue
same,liver triglycerides (μg/mg tissue),[1]; [4],5.4 μg/mg tissue
same,liver cholesterol (μg/mg tissue),[1]; [5],38.32 μg/mg tissue and 42.07 μg/mg tissue and 39.38 μg/mg tissue and 32.61 μg/mg tissue and 40.02 μg/mg tissue and 42.44 μg/mg tissue
same,liver fatty acids (nmol/mg tissue),[1]; [5],63.4 nmol/mg tissue and 66.5 nmol/mg tissue and 65.0 nmol/mg tissue and 50.0 nmol/mg tissue and 62.7 nmol/mg tissue and 72.5 nmol/mg tissue
same,liver triglycerides (μg/mg tissue),[1]; [5],6.75 μg/mg tissue and 2.65 μg/mg tissue and 2.83 μg/mg tissue and 3.72 μg/mg tissue and 9.84 μg/mg tissue and 6.82 μg/mg tissue
same,liver cholesterol (μg/mg tissue),[1]; [6],20.3 μg/mg tissue
same,liver fatty acids (nmol/mg tissue),[1]; [6],43.0 nmol/mg tissue
same,liver triglycerides (μg/mg tissue),[1]; [6],11.7 μg/mg tissue
same,liver cholesterol (μg/mg tissue),[1]; [7],22.40 μg/mg tissue and 20.18 μg/mg tissue and 20.88 μg/mg tissue and 17.60 μg/mg tissue
same,liver fatty acids (nmol/mg tissue),[1]; [7],43.6 nmol/mg tissue and 43.1 nmol/mg tissue and 43.5 nmol/mg tissue and 41.8 nmol/mg tissue
same,liver triglycerides (μg/mg tissue),[1]; [7],9.11 μg/mg tissue and 11.15 μg/mg tissue and 14.68 μg/mg tissue and 11.77 μg/mg tissue
same,DDct,INSIG1; [8],0.28
same,DDct,INSIG1; [9],−0.58 and 0.21 and 0.48 and −0.03 and 0.34 and 1.45 and 0.09 and 0.52 and 0.32 and 0.05
same,DDct,INSIG1; [10],0.15
same,DDct,INSIG1; [11],0.5 and 0.75 and 0.51 and −0.67 and 0.62 and −0.76
same,Dct,INSIG1; [8],12
same,Dct,INSIG1; [9],11.1 and 11.89 and 12.16 and 11.65 and 12.02 and 13.13 and 11.77 and 12.2 and 12 and 11.73
same,Dct,INSIG1; [10],11.8
same,Dct,INSIG1; [11],12.18 and 12.43 and 12.19 and 11.01 and 12.3 and 10.92
same,2DDct,INSIG1; [8],0.87
same,2DDct,INSIG1; [9],1.5 and 0.87 and 0.72 and 1.02 and 0.79 and 0.37 and 0.94 and 0.7 and 0.8 and 0.97
same,2DDct,INSIG1; [10],0.99
same,2DDct,INSIG1; [11],0.71 and 0.6 and 0.7 and 1.6 and 0.65 and 1.7
same,INSIG1,INSIG1; [8],24.2
same,INSIG1,INSIG1; [9],24.56 and 25 (2×) and 23.77 and 24.05 and 26.48 and 23.37 and 23.99 and 23.14 and 22.85
same,INSIG1,INSIG1; [10],24
same,INSIG1,INSIG1; [11],25.09 and 24.72 and 24.39 and 24.04 and 23.79 and 22.18
same,2^DDct,SCD1; individual animal,1.76 and 2.30 and 0.58 and 0.87 and 0.84 and 1.40 and 1.54 and 1.64 and 0.61 and 0.42 and 2.57
same,DDct,SCD1; individual animal,−0.81 and −1.20 and 0.78 and 0.20 and 0.26 and −0.48 and −0.62 and −0.71 and 0.72 and 1.25 and −1.36
same,Dct,SCD1; individual animal,4.5 and 4.11 and 6.09 and 5.51 and 5.57 and 4.83 and 4.69 and 4.6 and 6.03 and 6.56 and 3.95
same,SCD1,SCD1; individual animal,17.05 and 16.66 and 18.93 and 17.94 and 17.92 and 17.42 and 16.42 and 17.11 and 17.53 and 18.11 and 16.3
same,2^DDct,"SCD1; mean, n 11",1.32
same,DDct,"SCD1; mean, n 11",−0.18
same,Dct,"SCD1; mean, n 11",5.1
same,SCD1,"SCD1; mean, n 11",17.4
same,18S,"SCD1; individual animal, 20 mg/kg",12.55 (2×) and 12.84 and 12.43 and 12.35 (2×) and 12.59 and 11.73 and 12.51 and 11.5 and 11.55
same,18S,"SCD1; mean, n 11",12.3

# — patent US10183015B2, “Heterocyclic compounds and methods of use” (Medivation Technologies LLC, priority 2015, dated 2019)
